The conditions of data set [1]: laser diffraction; for Size of crystals, 10% < / Size of crystals, 50% < / Size of crystals, 90% < / Size of crystals, Mean: quetiapine conc. 20 w-%, ethanol-water 80 w-% (Example 5), 85 w-% (Example 6). The procedure:
In examples 5 and 6 the crystal size analysis was performed using laser diffraction analyser (light scattering). Volume cell was 15 ml, optical length 0.6 cm, obscuration about 8 to 12%. Methyl siloxane was used as a dispersant.

Counter-ions that a name gives are not always drawn. Like-named read-outs stand apart in the source and are kept apart here.

Take `OCCOCCN1CCN(C2=Nc3ccccc3Sc3ccccc32)CC1` [Example 5, quetiapine hemifumarate]: in data set [1], the “Size of crystals, 10% <” value is 10% < 25 μm; the “Size of crystals, 50% <” value came to 50% < 83 μm; the “Size of crystals, 90% <” value was 90% < 244 μm; the “Size of crystals, Mean” value is recorded as “Mean: 108 μm”.

For the compound `OCCOCCN1CCN(C2=Nc3ccccc3Sc3ccccc32)CC1` [Example 6, quetiapine hemifumarate], in data set [1], the “Size of crystals, 10% <” value was 10% < 14 μm; the “Size of crystals, 50% <” value is 50% < 44 μm; the “Size of crystals, 90% <” value stood at 90% < 148 μm; the “Size of crystals, Mean” value is given as “Mean: 60 μm”.

With `OCCOCCN1CCN(C2=Nc3ccccc3Sc3ccccc32)CC1` [quetiapine hemifumarate, 11-(4-[2-(2-hydroxyethoxy)ethyl]-1-piperazinyl]dibenzo[b,f]-1,4-thiazepine hemifumarate (2:1) salt], in data set [1] (water content of crystallization solvent between 15 to 20 w-%), the “90% of the crystals below” value is on record as “below 244 μm”. The size of crystals reads like this: (ratio of alcohol to water 77:22) 50-100 microns; (ratio of alcohol to water 91:9) 10-20 microns.
